Data reported in patent US20090264384A1, “INDOLE, BENZIMIDAZOLE, AND BENZOLACTAM BORONIC ACID COMPOUNDS, ANALOGS THEREOF AND METHODS OF USE THEREOF” (Nuada, Inc., priority 2004, published 2009).
“And” between values parts separate entries of the source, which are not always exact repeats. Identical values can stand only once.

Assays:
[1] = target: hERG (Homo sapiens, UniProt Q12809); assay: ADME-Tox: QT Prolongation, HERG (patch-clamp); conditions: human, HEK-293 cells stably expressing HERG
[2] = target: HERG channel (Homo sapiens, UniProt Q12809); assay: ADME-Tox: QT Prolongation, HERG (patch-clamp)
HERG channel, sequence (Q12809 whole entry): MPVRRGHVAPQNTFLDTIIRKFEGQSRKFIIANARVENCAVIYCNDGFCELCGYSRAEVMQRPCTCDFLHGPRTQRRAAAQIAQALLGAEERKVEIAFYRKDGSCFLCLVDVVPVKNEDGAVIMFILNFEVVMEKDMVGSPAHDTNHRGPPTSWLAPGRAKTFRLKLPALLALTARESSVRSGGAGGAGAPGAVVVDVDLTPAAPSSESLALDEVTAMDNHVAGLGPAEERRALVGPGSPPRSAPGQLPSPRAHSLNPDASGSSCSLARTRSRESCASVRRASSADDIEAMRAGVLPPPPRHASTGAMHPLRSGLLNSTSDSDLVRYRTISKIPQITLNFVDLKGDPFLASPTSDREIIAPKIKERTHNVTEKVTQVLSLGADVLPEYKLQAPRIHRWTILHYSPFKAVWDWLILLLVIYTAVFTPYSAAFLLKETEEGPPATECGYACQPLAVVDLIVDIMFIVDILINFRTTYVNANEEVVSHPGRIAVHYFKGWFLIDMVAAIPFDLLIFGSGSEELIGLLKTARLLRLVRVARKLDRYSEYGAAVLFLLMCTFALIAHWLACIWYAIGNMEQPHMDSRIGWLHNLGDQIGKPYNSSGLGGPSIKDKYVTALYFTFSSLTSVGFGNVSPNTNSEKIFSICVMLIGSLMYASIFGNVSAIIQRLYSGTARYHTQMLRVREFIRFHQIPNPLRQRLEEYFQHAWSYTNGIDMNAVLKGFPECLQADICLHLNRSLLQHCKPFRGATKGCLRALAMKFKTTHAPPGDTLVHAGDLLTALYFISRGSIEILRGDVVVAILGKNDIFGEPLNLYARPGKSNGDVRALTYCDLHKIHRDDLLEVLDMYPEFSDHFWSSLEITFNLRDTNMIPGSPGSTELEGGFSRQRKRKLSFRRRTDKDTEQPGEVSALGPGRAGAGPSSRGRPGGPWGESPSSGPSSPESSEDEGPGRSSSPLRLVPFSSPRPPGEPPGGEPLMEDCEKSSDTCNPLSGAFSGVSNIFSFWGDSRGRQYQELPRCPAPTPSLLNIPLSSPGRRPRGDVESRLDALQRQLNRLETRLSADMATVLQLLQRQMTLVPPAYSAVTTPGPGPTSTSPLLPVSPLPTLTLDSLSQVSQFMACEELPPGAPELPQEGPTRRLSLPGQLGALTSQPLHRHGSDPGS

[3] = system: TNF-α production by PMBC; assay: Inhibition of TNF-α Production By Peripheral Blood Monocyte Cells (PMBC), LPS stimulated; assay type: cell-based; conditions: 1 ug/mL LPS, 24 hours
Procedure: PMBC in RPMI 1640 Cell Culture Medium (containing 1% Penicillin and 1% Streptomycin) are aliquoted into 96-well plates at 5×10^5 cells/well and pre-incubated with test compounds for 30 minutes at 37° C. After incubation, 1 ug/mL LPS is added to each well to stimulate TNF-α production and the plate is incubated for 24 hours at 37° C. After incubation, the supernatant is removed and the TNF-α secreted is quantified using EIA detection kits commercially available from R&D Systems (USA). The results from this assay are expressed as percent inhibition of control activity, with the control being stimulated wells with no test compound. Dexamethasone is used as a standard reference compound in the assay and is tested with each experiment. All test compounds are diluted from 10 mM stock solutions in 100% DMSO.

[4] = Solubility when preparing the topical solution; assay type: physicochemical
Procedure: (§1) An aliquot of a representative presently disclosed compound was stored in an amber glass vial and stored at 25° C. […] 0.1 mL of this solution was diluted into 0.9 mL 190 proof alcohol to prepare a 0.5% solution.

[5] = target: T1, phosphodiesterase (Homo sapiens, UniProt O76074); assay: In vitro phosphodiesterase enzyme assays of Example 39 (IC50 determination); assay type: biochemical
T1 construct: IC50; other: Phosphodiesterase 5 (h); nH; other: Hill coefficient, Phosphodiesterase 5 (h)
Procedure: (§2) The in vitro pharmacology of 5-(2-(4-Methoxyphenyl)-1H-benzo[d]imidazol-1-yl)pentylboronic acid was determined with several enzymes as described in Table 19 using the experimental conditions of Table 18.
(§3) Results. The corresponding inhibition curves were also determined (data not shown). Each is within accepted limits of the historic average ±0.5 log units. Table 21 contains the mean experimental values for the […] as performed as described above.

[6] = target: T2, phosphodiesterase; assay: as above; assay type: biochemical; conditions: Phosphodiesterase 4 (h)
T2 construct: IC50; other: Phosphodiesterase 4 (h); nH; other: Hill coefficient, Phosphodiesterase 4 (h)
Procedure: as §2, §3

[7] = target: T3, phosphodiesterase (Homo sapiens, UniProt O00408); assay: as above; assay type: biochemical
T3 construct: IC50; other: Phosphodiesterase 2 (h); nH; other: Hill coefficient, Phosphodiesterase 2 (h)
T3 sequence (O00408 whole entry): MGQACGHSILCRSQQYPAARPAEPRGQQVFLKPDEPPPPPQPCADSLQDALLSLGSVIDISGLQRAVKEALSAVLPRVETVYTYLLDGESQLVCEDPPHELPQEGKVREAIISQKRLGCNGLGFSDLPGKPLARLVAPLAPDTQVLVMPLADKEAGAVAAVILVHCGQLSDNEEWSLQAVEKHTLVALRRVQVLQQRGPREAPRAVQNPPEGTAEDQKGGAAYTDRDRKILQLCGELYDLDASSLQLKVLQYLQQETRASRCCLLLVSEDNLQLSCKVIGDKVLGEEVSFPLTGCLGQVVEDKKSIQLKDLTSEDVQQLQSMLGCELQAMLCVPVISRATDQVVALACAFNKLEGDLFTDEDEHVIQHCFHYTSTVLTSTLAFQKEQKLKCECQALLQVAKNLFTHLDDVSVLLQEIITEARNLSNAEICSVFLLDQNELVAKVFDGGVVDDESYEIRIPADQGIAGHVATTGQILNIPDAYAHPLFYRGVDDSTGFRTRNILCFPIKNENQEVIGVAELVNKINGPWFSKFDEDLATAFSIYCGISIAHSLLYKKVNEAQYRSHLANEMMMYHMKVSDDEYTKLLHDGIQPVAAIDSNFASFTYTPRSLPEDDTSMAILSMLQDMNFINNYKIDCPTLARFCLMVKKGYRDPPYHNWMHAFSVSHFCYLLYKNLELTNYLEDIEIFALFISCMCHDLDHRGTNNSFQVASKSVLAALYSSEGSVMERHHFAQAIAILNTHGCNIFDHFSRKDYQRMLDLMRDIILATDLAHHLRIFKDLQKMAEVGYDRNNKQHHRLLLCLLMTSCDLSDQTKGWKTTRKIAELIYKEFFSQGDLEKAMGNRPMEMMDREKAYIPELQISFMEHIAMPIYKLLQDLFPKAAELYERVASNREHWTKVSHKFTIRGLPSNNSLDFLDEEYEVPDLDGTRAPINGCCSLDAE
Procedure: as §2, §3

[8] = target: T4, phosphodiesterase (Bos taurus, UniProt P11541+P23439); assay: as above; assay type: biochemical; conditions: Hill coefficient, Phosphodiesterase 6
T4 construct: IC50; other: Phosphodiesterase 6 (bovine retina); nH; other: Hill coefficient, Phosphodiesterase 6
T4 sequence (P11541 2-856): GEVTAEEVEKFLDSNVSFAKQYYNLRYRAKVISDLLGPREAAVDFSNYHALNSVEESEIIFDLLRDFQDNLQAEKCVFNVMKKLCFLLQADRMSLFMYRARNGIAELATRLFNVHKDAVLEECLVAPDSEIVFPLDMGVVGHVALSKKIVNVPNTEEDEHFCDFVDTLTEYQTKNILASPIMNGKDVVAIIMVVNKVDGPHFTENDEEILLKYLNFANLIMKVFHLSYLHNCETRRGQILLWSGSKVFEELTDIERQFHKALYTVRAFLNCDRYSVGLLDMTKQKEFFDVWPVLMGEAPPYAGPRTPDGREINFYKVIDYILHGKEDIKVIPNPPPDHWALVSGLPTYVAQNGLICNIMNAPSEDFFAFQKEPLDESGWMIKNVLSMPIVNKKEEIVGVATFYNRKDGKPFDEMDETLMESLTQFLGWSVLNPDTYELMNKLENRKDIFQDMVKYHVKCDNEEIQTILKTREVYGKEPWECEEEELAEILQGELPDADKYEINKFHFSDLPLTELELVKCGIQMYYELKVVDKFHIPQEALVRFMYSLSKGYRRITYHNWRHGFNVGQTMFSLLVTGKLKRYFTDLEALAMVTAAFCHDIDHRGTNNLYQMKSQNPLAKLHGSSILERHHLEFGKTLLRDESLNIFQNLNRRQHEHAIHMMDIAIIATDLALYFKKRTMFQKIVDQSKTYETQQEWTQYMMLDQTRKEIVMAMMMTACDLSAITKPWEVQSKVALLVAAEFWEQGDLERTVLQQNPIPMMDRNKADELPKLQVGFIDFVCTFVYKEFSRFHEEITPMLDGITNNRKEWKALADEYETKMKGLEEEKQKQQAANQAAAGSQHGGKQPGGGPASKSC
T4 sequence (P23439 2-850): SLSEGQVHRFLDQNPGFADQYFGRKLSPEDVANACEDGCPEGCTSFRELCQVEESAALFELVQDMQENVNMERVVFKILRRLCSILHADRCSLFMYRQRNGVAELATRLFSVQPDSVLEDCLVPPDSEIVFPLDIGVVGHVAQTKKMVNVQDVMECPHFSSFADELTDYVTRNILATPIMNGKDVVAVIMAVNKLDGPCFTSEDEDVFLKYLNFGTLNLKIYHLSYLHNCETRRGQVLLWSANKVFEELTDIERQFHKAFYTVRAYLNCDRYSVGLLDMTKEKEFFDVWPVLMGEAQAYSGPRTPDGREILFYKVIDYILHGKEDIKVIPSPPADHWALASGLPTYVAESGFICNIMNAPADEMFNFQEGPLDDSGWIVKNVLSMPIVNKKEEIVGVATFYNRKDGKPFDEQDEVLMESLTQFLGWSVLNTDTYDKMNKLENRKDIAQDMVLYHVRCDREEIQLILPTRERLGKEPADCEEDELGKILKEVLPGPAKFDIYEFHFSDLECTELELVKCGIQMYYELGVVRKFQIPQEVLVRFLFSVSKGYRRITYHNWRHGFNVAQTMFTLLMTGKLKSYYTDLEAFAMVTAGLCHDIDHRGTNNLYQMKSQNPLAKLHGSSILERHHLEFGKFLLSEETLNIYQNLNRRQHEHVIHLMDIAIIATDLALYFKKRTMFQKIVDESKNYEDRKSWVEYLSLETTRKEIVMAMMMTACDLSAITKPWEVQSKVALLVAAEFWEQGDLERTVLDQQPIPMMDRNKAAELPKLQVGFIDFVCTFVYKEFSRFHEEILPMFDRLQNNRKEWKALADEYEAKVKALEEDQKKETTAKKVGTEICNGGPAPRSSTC
T4 sequence (P04972 whole entry partner): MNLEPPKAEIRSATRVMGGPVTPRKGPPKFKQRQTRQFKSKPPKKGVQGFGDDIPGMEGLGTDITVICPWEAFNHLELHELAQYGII
Procedure: as §2, §3

[9] = system: arachidonic acid-induced ear edema; assay: Arachidonic acid-induced mouse ear edema model; assay type: in vivo; conditions: for inhibition of the irritant-induced ear edema: thirty minutes prior to arachidonic acid challenge; for Change in Ear Weight (mg) Average / % Inhibition / Ear Weight (mg) Left (−AA) / Ear Weight (mg) Right (+AA): topical; for % Inhibition: change in ear weight vs vehicle; for Ear Weight (mg) Left (−AA) / Ear Weight (mg) Right (+AA): individual mice
Procedure: This example was carried out in male BALB/c mice. 42 BALB/c mice (Harlan Sprague-Dawley, Inc., male, PO # 452036, R #2449, 5-6 weeks) were received, individually examined, and housed in four cages of ten mice each and one cage containing two mice. Each animal was in apparent good health: no clinical signs of disease or distress. The animals were placed in quarantine with daily inspections.
as §1
30 mg indomethacin (Sigma Cat. I-7378, lot 60K0745) was dissolved in 5 ml 0.1 M NaHCO3 to prepare a 6 mg/mL solution.
48.9 μL arachidonic acid (Sigma Cat. A-9673. lot 057K1620) was dissolved in 450 μL 190 proof alcohol to prepare a 100 mg/mL solution.
The mice were numbered and weighed. The mice in Groups 1, 3, 4 were topically treated on both sides of both ears with either 25 μL 190 proof alcohol, 5% 5-(2-(4-Methoxyphenyl)-1H-benzo[d]imidazol-1-yl)pentylboronic acid, or 0.5% 5-(2-(4-Methoxyphenyl)-1H-benzo[d]imidazol-1-yl)pentylboronic acid. The mice in Group 2 were injected intraperitoneally with 5 mL/kg indomethacin (30 mg/kg). Thirty minutes after 190 proof alcohol, indomethacin, or 5-(2-(4-Methoxyphenyl)-1H-benzo[d]imidazol-1-yl)pentylboronic acid application/administration, 5 μL of the arachidonic acid solution was applied to the dorsal and ventral sides of the right ear. The contralateral ear was treated with 190 proof alcohol. One hour after alcohol/arachidonic acid application, the mice were euthanized, the ears removed and the ear weights recorded.
Significance (p-value) was calculated using Student's T-test. The effect of prophylactic topical treatment with a representative presently disclosed compound on arachidonic acid-induced murine ear edema is shown in FIG. 16.

[10] = target: Cytochrome P450 (CYP) (Homo sapiens, UniProt P05177)
[11] = target: Cytochrome P450 (CYP) (Homo sapiens, UniProt P10635); assay: ADME-Tox: In vitro Metabolism (Cytochrome P450, fluorogenic substrates BFC, CEC, MFC); conditions: Hill coefficient, CYP2D6 Inhibition (7-MFC substrate)
Cytochrome P450 (CYP) (Homo sapiens, UniProt P10635), sequence (P10635 whole entry): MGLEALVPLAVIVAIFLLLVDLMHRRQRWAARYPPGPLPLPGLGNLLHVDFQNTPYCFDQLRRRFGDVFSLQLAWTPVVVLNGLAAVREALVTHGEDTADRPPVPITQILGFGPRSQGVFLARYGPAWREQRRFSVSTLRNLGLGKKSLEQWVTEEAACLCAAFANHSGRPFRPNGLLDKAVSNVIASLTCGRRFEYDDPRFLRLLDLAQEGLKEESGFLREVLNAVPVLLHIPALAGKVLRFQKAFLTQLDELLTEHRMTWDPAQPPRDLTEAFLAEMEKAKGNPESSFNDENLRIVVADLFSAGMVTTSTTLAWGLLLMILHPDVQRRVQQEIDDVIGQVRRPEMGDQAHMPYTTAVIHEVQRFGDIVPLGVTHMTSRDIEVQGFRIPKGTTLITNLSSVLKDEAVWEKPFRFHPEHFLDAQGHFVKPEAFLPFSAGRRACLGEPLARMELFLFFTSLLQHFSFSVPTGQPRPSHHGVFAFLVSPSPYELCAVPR

[12] = target: Cytochrome P450 (CYP) (Homo sapiens, UniProt P11712); assay: as above; conditions: Hill coefficient, CYP2C9 Inhibition (7-MFC substrate)
Cytochrome P450 (CYP) (Homo sapiens, UniProt P11712), sequence (P11712 whole entry): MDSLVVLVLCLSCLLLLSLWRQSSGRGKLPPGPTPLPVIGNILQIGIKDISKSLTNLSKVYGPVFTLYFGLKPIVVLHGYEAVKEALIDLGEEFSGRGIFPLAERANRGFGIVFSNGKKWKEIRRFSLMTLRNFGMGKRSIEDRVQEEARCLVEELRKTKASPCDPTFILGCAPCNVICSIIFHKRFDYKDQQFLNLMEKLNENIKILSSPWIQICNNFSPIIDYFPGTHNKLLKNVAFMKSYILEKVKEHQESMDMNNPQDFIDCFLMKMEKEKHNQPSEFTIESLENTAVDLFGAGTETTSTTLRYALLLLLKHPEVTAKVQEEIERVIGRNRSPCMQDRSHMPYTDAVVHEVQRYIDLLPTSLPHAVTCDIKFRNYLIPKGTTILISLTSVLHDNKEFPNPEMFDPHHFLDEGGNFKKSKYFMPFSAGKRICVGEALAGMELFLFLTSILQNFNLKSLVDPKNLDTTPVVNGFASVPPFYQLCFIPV

[13] = system: chronic colitis provoked by trinitrobenzene sulphonic acid (TNBS); assay: Rat model of chronic colitis provoked by TNBS over 14 days, treatment from Day 1; assay type: in vivo; conditions: 3 mg/kg i.v. on Day 1 and Day 7
Text: In the chronic model of colitis, assessment of the colonic inflammation is made 14 days or longer, after the intracolonic challenge with TNBS (Boughton-Smith et al, 1988a, 1988b; Wallace et al, 1989; Rachmilewitz et al, 1989; Wallace and Keenan, 1990; Ameho et al, 1987; Sans et al, 1999; Sun et al, 2001; Maric et al, 2003; Moreels et al, 2004; Gonzalez et al, 2004). This model allows treatment with experimental agents to commence following the establishment of the colonic injury, typically 24 hours after the TNBS challenge (Galvez et al, 2000, Villegas, 2003, Gonzalez et al, 2004). The model should therefore identify the ability of the experimental compounds to accelerate the diminution of the inflammatory response and to promote healing of the colonic lesions. This model thus has relevance additional to the acute model, as the clinical correlate is the therapeutic intervention in patients with existing IBD not in remission or with flare-up, to reduce the crisis. This contrasts with the acute TNBS model where the compounds are administered one or two days prior to challenge, the clinical correlate being the use of prophylactic therapy to prevent flare-up and maintain remission in IBD patients.
In this current study, the low intracolonic challenge concentration of TNBS used in the acute studies was also used for the chronic study over a 14 day period. This concentration and timing was based on the findings from pilot studies where a range of concentrations of TNBS and treatment conditions were evaluated over a 14 day period. […].
The methods and protocol used were substantially similar to those in Example 39-40, with some differences described below.
TNBS Challenge. Male Wistar rats (average body weight, 210 g) were randomised into groups before commencement of the study. In all groups, including the non-challenged and non-treated absolute control group, food was withdrawn for 12 h before TNBS administration (i.e. overnight on Day −1), but the rats were allowed free access to drinking water.
On the morning of the day of challenge (Day 0, between 9.00 and 1 1.00 a.m.), the rats were transiently anaesthetised with ether and the TNBS solution (10 mg in 0.25 ml of 50% ethanol) was instilled approximately 6-8 cm into the colon using a soft plastic catheter inserted in the rat rectum. The rats were allowed to recover with free access to food and drinking water. At the end of the experiment, on the morning of Day 14, between 9.00 and 11.00), the colon was dissected, and the distal 8 cm photographed and immediately processed or stored appropriately for subsequent analyses.
The following primary parameters were measured in the study: macroscopic scoring of distal 8 cm of colon; myeloperoxidase levels in segments of distal 8 cm of colon; TNF-α levels in segments of distal 8 cm of colon.
In addition, the weight of the standard colonic segment was assessed as an indirect and non-specific marker of oedema. The body weight of the animals was also determined each evening of the study, starting on Day-1, and also on the morning of Day 14. The data is shown graphically as the % change from the weight on Day-1, prior to challenge.
Treatments. The TNBS challenged groups for study were: (a) Vehicle control 0.5% carboxy methyl cellulose (CMC) p.o., twice daily from Day; (b) CCI-7506 25 mg/kg, p.o., twice daily from Day 1 (50 mg/kg/day total); (c) CCI-7506 50 mg/kg, p.o., twice daily from Day 1 (100 mg/kg/day total); (d) CCI-7507 12.5 mg/kg, p.o., twice daily from Day 1 (25 mg/kg/day total); (e) CCI-7507 25 mg/kg, p.o., twice daily from Day 1(50 mg/kg/day total); […]; (g) Infliximab 3 mg/kg, single slow i.v. injection, on Day 1 and Day7.
The experimental compounds that were administered orally were given twice a day from Day 1, i.e. 24 h following TNBS administration, for the remainder of the 14 day experimental period. Infliximab was administered by slow i.v. injection of Day 1 and on Day 7. […]

[14] = system: TNBS colitis; conditions: single intravenous dose pre-treatment; 8 days after TNBS challenge; cited from earlier work

For `COc1ccc(-c2nc3ccccc3n2CCCCCB(O)O)cc1` [Example 7, 5-(2-(4-Methoxyphenyl)-1H-benzo[d]imidazol-1-yl)pentylboronic acid], the inhibition at 1 µM [1] was 49.7%, the “Potency Ranking” value ([2]; HERG-channel blocker ranking, from 1 μM test (Table 21)) was “Moderate/High” and the “HERG-channel blocker potency class” value ([2]; general potency ranking system (Roche et al.)) was “moderate/high”. For the same molecule, the IC50 [3] was 200 nM, the solubility in acetone [4] was “not soluble in acetone” and the nH ([5]; Hill coefficient, Phosphodiesterase 5(h)) was 0.7. It also gave an IC50 ([5]; Phosphodiesterase 5 (h)) of 960 nM, an IC50 [6] of 420 nM and a nH ([7]; Hill coefficient, Phosphodiesterase 2(h)) of 0.8. The IC50 ([7]; Phosphodiesterase 2 (h)) was 110 nM, the nH [8] was 0.9 and the “inhibition of the irritant-induced ear edema” value ([9]; 0.5% solution topical) was 12%. For the same molecule, the “Change in Ear Weight (mg) Average” value ([9]; 0.5%) was 44.1 mg, the “inhibition of the irritant-induced ear edema” value ([9]; 5% solution topical) was 46% and the “Change in Ear Weight (mg) Average” value ([9]; 5%) was 26.9 mg. The “% Inhibition” value ([9]; 0.5%) was 12.2%, the “% Inhibition” value ([9]; 5%) was 46.4% and the “Ear Weight (mg) Left (−AA)” value ([9]; 0.5%) was 22 mg (2×) and 20 mg (4×) and 34 mg and 23 mg and 24 mg and 21 mg. For the same molecule, the “Ear Weight (mg) Right (+AA)” value ([9]; 0.5%) was 76 mg and 63 mg and 55 mg and 82 mg and 78 mg and 50 mg and 62 mg and 77 mg and 60 mg and 64 mg, the “Ear Weight (mg) Left (−AA)” value ([9]; 5%) was 23 mg (3×) and 24 mg (2×) and 22 mg (3×) and 20 mg and 21 mg and the “Ear Weight (mg) Right (+AA)” value ([9]; 5%) was 50 mg and 48 mg and 57 mg and 42 mg and 55 mg and 51 mg and 53 mg and 49 mg and 44 mg (2×).

With `Cc1nc2c([nH]1)c(=O)n(C)c(=O)n2Cc1ccco1` [furafylline] the nH [10] was 0.6.

For `C=C[C@H]1C[N@@]2CC[C@H]1C[C@@H]2[C@@H](O)c1ccnc2ccc(OC)cc12` [quinidine], the nH [11] was 0.9.

Work on `Nc1ccc(S(=O)(=O)Nc2ccnn2-c2ccccc2)cc1` [sulfaphenazole] yielded a nH [12] of 1.0.

For infliximab, the “macroscopic Damage Score” value ([13]; Day 14) was “reduced the damage score”, the “reduction in colon weight” value ([13]; Day 14, vs CMC group) was “significant (P<0.05) reduction in colon weight” and the “reduction in colonic MPO activity” value ([13]; Day 14, vs CMC group) was “significantly attenuated the increase in MPO”. For the same molecule, the “reduction in colonic TNF-α levels” value ([13]; Day 14, vs CMC group) was “significantly attenuated the increase in TNF-α levels”, the “reduction in colonic lesion area (% of the total area measured)” value ([13]; Day 14, vs CMC group) was “significantly attenuated the area of injury” and the “attenuation of TNBS-induced fall in body weight (% change of body weight at Day −1)” value ([13]; over 14 days, vs CMC group) was “significant on Day 2 and 3”. The “macroscopic injury, colonic MPO and TNF-α levels” value [14] was “found to reduce the macroscopic injury, colonic MPO and TNF-α levels”.
